Results published in patent US20040106545A1, “Compounds and methods for modulating cell adhesion” (priority 1996, published 2004).
Entries after “also recorded” stand apart in the source; their conditions may differ. Positions of bridges follow the written chain, without caps; N, C: chain ends. Residues, ends and D or L forms follow the SMILES beside them.

Assays:
[1] = system: Madin Darby canine kidney (MDCK) cells; format: cell-based; details: for EC50, decrease of electrical resistance across MDCK cell monolayer: 18 hours
How it was run: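 MDCK monolayers, grown in DMEM with 5% FCS from 300,000 cells per insert, exposed to modulating agent in medium (e.g., 0.5 mg/ml final for 24 hours). Transepithelial electrical resistance measured as an index of tight junction formation.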

NRK cells = assay: Disruption of normal rat kidney (NRK) cell adhesion, E-cadherin immunofluorescence; format: cell-based; details: 1 mg/mL, 48 hours
Procedure: Within another such assay, the effect of a modulating agent on normal rat kidney (NRK) cells may be evaluated. According to a representative procedure, NRK cells (ATCC #1571-CRL) may be plated at 10-20,000 cells per 35 mm tissue culture flasks containing DMEM with 10% FCS and sub-cultured periodically (Laird et al., J. Cell Biol. 131:1193-1203, 1995). Cells may be harvested and replated in 35 mm tissue culture flasks containing 1 mm coverslips and incubated until 50-65% confluent (24-36 hours). At this time, coverslips may be transferred to a 24-well plate, washed once with fresh DMEM and exposed to modulating agent at a concentration of, for example, 1 mg/mL for 24 hours. Fresh modulating agent may then be added, and the cells left for an additional 24 hours. Cells may be fixed with 100% methanol for 10 minutes and then washed three times with PBS. Coverslips may be blocked for 1 hour in 2% BSA/PBS and incubated for a further 1 hour in the presence of mouse anti-E-cadherin antibody (Transduction Labs, 1:250 dilution). Primary and secondary antibodies may be diluted in 2% BSA/PBS. Following incubation in the primary antibody, coverslips may be washed three times for 5 minutes each in PBS and incubated for 1 hour with donkey anti-mouse antibody conjugated to fluorescein (diluted 1:200). Following further washes in PBS (3×5 min) coverslips can be mounted and viewed by confocal microscopy.
NRK cells (ATCC #1571-CRL) were plated at 10-20,000 cells per 35 mm tissue culture flasks containing DMEM with 10% FCS and sub-cultured periodically (Laird et al., J. Cell Biol. 131:1193-1203, 1995). Cells were harvested and replated in 35 mm tissue culture flasks containing 1 mm coverslips and incubated until 50-65% confluent (24-36 hours). At this time, coverslips were transferred to a 24-well plate, washed once with fresh DMEM and exposed to cyclic peptide solutions (N—Ac-CHAVC-NH2 (SEQ ID NO:10) and N—Ac-CHGVC-NH2 (SEQ ID NO:11)) at a concentration of 1 mg/mL for 24 hours. Fresh peptide solutions were then added and the cells were left for an additional 24 hours. Cells were fixed with 100% methanol for 10 minutes and then washed three times with PBS. Coverslips were blocked for 1 hour in 2% BSA/PBS and incubated for a further 1 hour in the presence of mouse anti-E-cadherin antibody (Transduction Labs, Lexington, Ky.; 1:250 dilution). Primary and secondary antibodies were diluted in 2% BSA/PBS. Following incubation in the primary antibody, coverslips were washed three times for 5 minutes each in PBS and incubated for 1 hour with donkey anti-mouse antibody conjugated to fluorescein (Jackson Immuno Research, West Grove, Pa.; diluted 1:200). Following a further wash in PBS (3×5 min) coverslips were mounted and viewed by confocal microscopy.

[2] = Cytotoxicity, MTT assay, WI-38; format: cell-based; details: human, read-out: WI-38 Cytotox (IC50)
Procedure: (§1) N—Ac-CHAVC-NH2 (SEQ ID NO:10) and the control peptide N—Ac-CHGVC-NH2 (SEQ ID NO:11) were evaluated for possible cytotoxic effects on human microvascular endothelial (HMVEC; Clonetics), human umbilical vein endothelial (HUVEC; ATCC #CRL-1730), IAFp2 (human fibroblast cell line; Institute Armand-Frapier, Montreal, Quebec), WI-38 (human fibroblast cell line; ATCC #CCL-75), MDA-MB231 (human breast cancer cell line; ATCC #HTB-26), and PC-3 (human prostate cancer cell line; ATCC #CRL-1435) cells utilizing the MTT assay (Plumb et al., Cancer Res. 49:4435-4440, 1989). Neither of the peptides was cytotoxic at concentrations up to and including 100 μM. Similarly, neither of the peptides was capable of inhibiting the proliferation of the above cell lines at concentrations up to 100 μM, as judged by ^3H-thymidine incorporation assays.

[3] = Cytotoxicity, MTT assay, HMVEC; format: cell-based; details: human, HMVEC (human microvascular endothelial cells), read-out: HMVEC Cytotox (IC50)
Procedure: as §1

[4] = Cytotoxicity, MTT assay, HUVEC; format: cell-based; details: human, HUVEC (human umbilical vein endothelial cells), read-out: HUVEC Cytotox (IC50)
Procedure: as §1

[5] = Cytotoxicity, MTT assay, MDA-MB231; format: cell-based, human; details: human, MTT assay, read-out: MDA-MB231 Cytotox (IC50)
How it was run: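 Human primary endothelial cells, fibroblast lines (IAFp2, WI-38) and cancer lines (MDA-MB231, PC-3) receive the CHAVC peptide or the CHGVC control at ≤100 μM. Viability is scored by MTT and DNA synthesis by ^3H-thymidine uptake.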

[6] = Cytotoxicity, MTT assay, IAFp2; format: cell-based; details: human, read-out: IAFp2 Cytotox (IC50)
Procedure: as §1

Structure (SMILES) | effect on electrical resistance across MDCK cells (in words) [1] | EC50, decrease of electrical resistance across MDCK cell monolayer [1] | E-cadherin expression of NRK cells (immunofluorescence) (NRK cells) | disruption of NRK cell adhesion (NRK cells) | IC50 ([2]; WI-38 cells (human fibroblast cell line)) [µM] | IC50 [3] [µM] | IC50 [4] [µM] | IC50 ([5]; MDA-MB231 cells (human breast cancer cell line)) [µM] | IC50 ([6]; IAFp2 cells (human fibroblast cell line)) [µM] | IC50 ([2]; WI-38 fibroblast cell line) [µM] | IC50 ([5]; MDA-MB231 breast cancer cell line) [µM] | IC50 ([6]; IAFp2 fibroblast cell line) [µM]
CC(=O)N[C@H]1CSSC[C@@H](C(N)=O)NC(=O)[C@H](CC(=O)O)NC(=O)[C@H](C(C)C)NC(=O)[C@H](C)NC(=O)[C@H](Cc2c[nH]cn2)NC(=O)[C@H](C)NC1=O [N—Ac—CAHAVDC—NH2, N-Ac-Cys-Ala-His-Ala-Val-Asp-Cys-NH2] (Ac-CAHAVDC-NH2; disulfide 1-7) | complete abrogation of E-cadherin specific activity | INACTIVE |  |  |  |  |  |  |  |  |  | 
CC(=O)N[C@H]1CSSC[C@@H](C(N)=O)NC(=O)[C@H](C(C)C)NC(=O)CNC(=O)[C@H](Cc2c[nH]cn2)NC1=O [N—Ac—CHGVC—NH2, reference compound] |  |  | expressed E-cadherin | had no affect on cell adhesion | > 100 | > 100 | > 100 | > 100 | > 100 |  |  | 
CC(=O)N[C@H]1CSSC[C@@H](C(N)=O)NC(=O)[C@H](C(C)C)NC(=O)[C@H](C)NC(=O)[C@H](Cc2c[nH]cn2)NC1=O [N—Ac—CHAVC—NH2, N-Ac-Cys-His-Ala-Val-Cys-NH2] |  |  | E-cadherin expression is greatly reduced; also recorded: expressed greatly reduced levels of E-cadherin | NRK cells retract from one another; also recorded: disrupted NRK cell adhesion |  | > 100 | > 100 |  |  | > 100 | > 100 | > 100
CC[C@H](C)[C@@H]1NC(=O)[C@H](CC(=O)O)NC(=O)[C@H](C(C)C)NC(=O)[C@H](C)NC(=O)[C@H](Cc2c[nH]cn2)NC(=O)[C@H](C)NC(=O)[C@@H](NC(C)=O)CSSC[C@@H](C(N)=O)NC1=O (Ac-CAHAVDIC-NH2; disulfide 1-8) |  | INACTIVE |  |  |  |  |  |  |  |  |  | 
